Results published in ChEMBL document CHEMBL3785084, “Rational modification of the lead molecule: Enhancement in the anticancer and dihydrofolate reductase inhibitory activity” (Bioorg Med Chem Lett, 2016).

Assays:
Dihydrofolate reductase = biological target: T1, Dihydrofolate reductase (Homo sapiens, UniProt P00374); assay: Inhibition of human DHFR assessed as conversion of dihydrofolic acid to tetrahydrfolic acid by enzyme immunoassay in presence of NADPH
T1 sequence (P00374 whole entry): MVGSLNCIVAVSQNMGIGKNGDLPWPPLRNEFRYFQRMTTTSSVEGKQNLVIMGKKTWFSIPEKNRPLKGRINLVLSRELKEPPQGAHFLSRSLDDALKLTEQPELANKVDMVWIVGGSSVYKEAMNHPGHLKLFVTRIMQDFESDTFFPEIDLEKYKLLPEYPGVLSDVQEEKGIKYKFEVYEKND

[1] = Cytotoxicity against human HL-60(TB) cells assessed as cell growth at 10^-5 M after 48 hrs by sulforhodamine B assay; type: functional; conditions: HL-60, 48 h, read-out: Activity
[2] = Cytotoxicity against human MOLT4 cells assessed as cell growth at 10^-5 M after 48 hrs by sulforhodamine B assay; type: functional; conditions: MOLT-4, 48 h, read-out: Activity
SR = assay: Cytotoxicity against human SR cells assessed as cell growth at 10^-5 M after 48 hrs by sulforhodamine B assay; type: functional; conditions: read-out: Activity
EKVX = assay: Cytotoxicity against human EKVX cells assessed as cell growth at 10^-5 M after 48 hrs by sulforhodamine B assay; type: functional; conditions: read-out: Activity
[3] = Cytotoxicity against human HOP92 cells assessed as cell growth at 10^-5 M after 48 hrs by sulforhodamine B assay; type: functional; conditions: HOP-92, 48 h, read-out: Activity
NCI-H226 = assay: Cytotoxicity against human NCI-H226 cells assessed as cell growth at 10^-5 M after 48 hrs by sulforhodamine B assay; type: functional; conditions: NCI-H226, 48 h, read-out: Activity
HT-29 = assay: Cytotoxicity against human HT-29 cells assessed as cell growth at 10^-5 M after 48 hrs by sulforhodamine B assay; type: functional; conditions: HT-29, 48 h, read-out: Activity
[4] = Cytotoxicity against human SW620 cells assessed as cell growth at 10^-5 M after 48 hrs by sulforhodamine B assay; type: functional; conditions: SW-620, 48 h, read-out: Activity
[5] = Cytotoxicity against human SF268 cells assessed as cell growth at 10^-5 M after 48 hrs by sulforhodamine B assay; type: functional; conditions: SF-268, 48 h, read-out: Activity
[6] = Cytotoxicity against human SF539 cells assessed as cell growth at 10^-5 M after 48 hrs by sulforhodamine B assay; type: functional; conditions: SF-539, 48 h, read-out: Activity
[7] = Cytotoxicity against human SNB19 cells assessed as cell growth at 10^-5 M after 48 hrs by sulforhodamine B assay; type: functional; conditions: SNB-19, 48 h, read-out: Activity
[8] = Cytotoxicity against human SNB75 cells assessed as cell growth at 10^-5 M after 48 hrs by sulforhodamine B assay; type: functional; conditions: SNB-75, 48 h, read-out: Activity
[9] = Cytotoxicity against human LOXIMVI cells assessed as cell growth at 10^-5 M after 48 hrs by sulforhodamine B assay; type: functional; conditions: LOX IMVI, read-out: Activity
M14 = assay: Cytotoxicity against human M14 cells assessed as cell growth at 10^-5 M after 48 hrs by sulforhodamine B assay; type: functional; conditions: M14, 48 h, read-out: Activity
MDA-MB-435 = assay: Cytotoxicity against human MDA-MB-435 cells assessed as cell growth at 10^-5 M after 48 hrs by sulforhodamine B assay; type: functional; conditions: MDA-MB-435, 48 h, read-out: Activity
SK-MEL-2 = assay: Cytotoxicity against human SK-MEL-2 cells assessed as cell growth at 10^-5 M after 48 hrs by sulforhodamine B assay; type: functional; conditions: SK-MEL-2, 48 h, read-out: Activity
SK-MEL-5 = assay: Cytotoxicity against human SK-MEL-5 cells assessed as cell growth at 10^-5 M after 48 hrs by sulforhodamine B assay; type: functional; conditions: SK-MEL-5, 48 h, read-out: Activity
[10] = Cytotoxicity against human UACC257 cells assessed as cell growth at 10^-5 M after 48 hrs by sulforhodamine B assay; type: functional; conditions: UACC-257, 48 h, read-out: Activity
[11] = Cytotoxicity against human OVCAR3 cells assessed as cell growth at 10^-5 M after 48 hrs by sulforhodamine B assay; type: functional; conditions: OVCAR-3, 48 h, read-out: Activity
[12] = Cytotoxicity against human OVCAR4 cells assessed as cell growth at 10^-5 M after 48 hrs by sulforhodamine B assay; type: functional; conditions: OVCAR-4, 48 h, read-out: Activity
[13] = Cytotoxicity against human OVCAR5 cells assessed as cell growth at 10^-5 M after 48 hrs by sulforhodamine B assay; type: functional; conditions: OVCAR-5, 48 h, read-out: Activity
[14] = Cytotoxicity against human OVCAR8 cells assessed as cell growth at 10^-5 M after 48 hrs by sulforhodamine B assay; type: functional; conditions: OVCAR-8, 48 h, read-out: Activity
[15] = Cytotoxicity against human NCI-ADR-RES cells assessed as cell growth at 10^-5 M after 48 hrs by sulforhodamine B assay; type: functional; conditions: read-out: Activity
[16] = Cytotoxicity against human SKOV3 cells assessed as cell growth at 10^-5 M after 48 hrs by sulforhodamine B assay; type: functional; conditions: SK-OV-3, 48 h, read-out: Activity
A498 = assay: Cytotoxicity against human A498 cells assessed as cell growth at 10^-5 M after 48 hrs by sulforhodamine B assay; type: functional; conditions: A498, 48 h, read-out: Activity
ACHN = assay: Cytotoxicity against human ACHN cells assessed as cell growth at 10^-5 M after 48 hrs by sulforhodamine B assay; type: functional; conditions: read-out: Activity
[17] = Cytotoxicity against human RXF393 cells assessed as cell growth at 10^-5 M after 48 hrs by sulforhodamine B assay; type: functional; conditions: RXF 393, 48 h, read-out: Activity
SN12C = assay: Cytotoxicity against human SN12C cells assessed as cell growth at 10^-5 M after 48 hrs by sulforhodamine B assay; type: functional; conditions: read-out: Activity
[18] = Cytotoxicity against human TK10 cells assessed as cell growth at 10^-5 M after 48 hrs by sulforhodamine B assay; type: functional; conditions: TK-10, 48 h, read-out: Activity
[19] = Cytotoxicity against human UO31 cells assessed as cell growth at 10^-5 M after 48 hrs by sulforhodamine B assay; type: functional; conditions: UO-31, 48 h, read-out: Activity
[20] = Cytotoxicity against human PC3 cells assessed as cell growth at 10^-5 M after 48 hrs by sulforhodamine B assay; type: functional; conditions: PC-3, 48 h, read-out: Activity
MDA-MB-231 = assay: Cytotoxicity against human MDA-MB-231 cells assessed as cell growth at 10^-5 M after 48 hrs by sulforhodamine B assay; type: functional; conditions: MDA-MB-231, 48 h, read-out: Activity
[21] = Cytotoxicity against human Hs 578T cells assessed as cell growth at 10^-5 M after 48 hrs by sulforhodamine B assay; type: functional; conditions: read-out: Activity
[22] = Cytotoxicity against human BT549 cells assessed as cell growth at 10^-5 M after 48 hrs by sulforhodamine B assay; type: functional; conditions: BT-549, 48 h, read-out: Activity
MDA-MB-468 = assay: Cytotoxicity against human MDA-MB-468 cells assessed as cell growth at 10^-5 M after 48 hrs by sulforhodamine B assay; type: functional; conditions: MDA-MB-468, 48 h, read-out: Activity

CN1C(=O)C(=Cc2cn(CC(O)Cn3cc(C=C4C(=O)N(C)C(=O)N(C)C4=O)c4ccccc43)c3ccccc23)C(=O)N(C)C1=O
IC50 (Dihydrofolate reductase): 20 µM
growth at 10 µM [1]: 107%
growth at 10 µM [2]: 106%
growth at 10 µM (SR): 94.3%
growth at 10 µM (EKVX): 91.7%
growth at 10 µM [3]: 80.4%
growth at 10 µM (NCI-H226): 86%
growth at 10 µM (HT-29): 112%
growth at 10 µM [4]: 102%
growth at 10 µM [5]: 92%
growth at 10 µM [6]: 103%
growth at 10 µM [7]: 102%
growth at 10 µM [8]: 72.3%
growth at 10 µM [9]: 97%
growth at 10 µM (M14): 89.7%
growth at 10 µM (MDA-MB-435): 107%
growth at 10 µM (SK-MEL-2): 118%
growth at 10 µM (SK-MEL-5): 97%
growth at 10 µM [10]: 127%
growth at 10 µM [11]: 95.2%
growth at 10 µM [12]: 97.2%
growth at 10 µM [13]: 90.5%
growth at 10 µM [14]: 114%
growth at 10 µM [15]: 105%
growth at 10 µM [16]: 85.2%
growth at 10 µM (A498): 98.4%
growth at 10 µM (ACHN): 93.7%
growth at 10 µM [17]: 104%
growth at 10 µM (SN12C): 99.1%
growth at 10 µM [18]: 117%
growth at 10 µM [19]: 63.8%
growth at 10 µM [20]: 79.6%
growth at 10 µM (MDA-MB-231): 78.3%
growth at 10 µM [21]: 97.3%
growth at 10 µM [22]: 92.3%
growth at 10 µM (MDA-MB-468): 19.4%

CC1=NN(c2cccc(Cl)c2)C(=O)/C1=C\c1cn(CC(O)Cn2cc(/C=C3\C(=O)N(c4cccc(Cl)c4)N=C3C)c3ccccc32)c2ccccc12
growth at 10 µM [1]: 109%
growth at 10 µM [2]: 104%
growth at 10 µM (SR): 96.3%
growth at 10 µM (EKVX): 101%
growth at 10 µM [3]: 122%
growth at 10 µM (NCI-H226): 109%
growth at 10 µM (HT-29): 112%
growth at 10 µM [4]: 108%
growth at 10 µM [5]: 104%
growth at 10 µM [6]: 94.2%
growth at 10 µM [7]: 107%
growth at 10 µM [8]: 93.4%
growth at 10 µM [9]: 102%
growth at 10 µM (M14): 101%
growth at 10 µM (MDA-MB-435): 106%
growth at 10 µM (SK-MEL-2): 115%
growth at 10 µM (SK-MEL-5): 101%
growth at 10 µM [10]: 116%
growth at 10 µM [11]: 102%
growth at 10 µM [12]: 103%
growth at 10 µM [13]: 102%
growth at 10 µM [14]: 115%
growth at 10 µM [15]: 111%
growth at 10 µM [16]: 110%
growth at 10 µM (A498): 119%
growth at 10 µM (ACHN): 107%
growth at 10 µM [17]: 116%
growth at 10 µM (SN12C): 99.7%
growth at 10 µM [18]: 118%
growth at 10 µM [19]: 86.4%
growth at 10 µM [20]: 104%
growth at 10 µM (MDA-MB-231): 97.2%
growth at 10 µM [21]: 102%
growth at 10 µM [22]: 109%
growth at 10 µM (MDA-MB-468): 123%

COc1cc(/C=C2\C(=O)Nc3ccccc32)cc(OC)c1O
IC50 (Dihydrofolate reductase): 0.5 µM
growth at 10 µM [1]: 1.88%
growth at 10 µM [2]: 0.62%
growth at 10 µM (SR): -10.3%
growth at 10 µM (EKVX): 110%
growth at 10 µM (HT-29): 75.7%
growth at 10 µM [4]: 31.5%
growth at 10 µM [5]: 78.3%
growth at 10 µM [6]: 68.8%
growth at 10 µM [7]: 83.7%
growth at 10 µM [8]: 23.1%
growth at 10 µM [9]: 36.5%
growth at 10 µM (M14): 53.6%
growth at 10 µM (MDA-MB-435): -25.3%
growth at 10 µM (SK-MEL-2): 50.4%
growth at 10 µM (SK-MEL-5): 45.7%
growth at 10 µM [10]: 62.6%
growth at 10 µM [11]: 46.9%
growth at 10 µM [12]: 89.1%
growth at 10 µM [13]: 112%
growth at 10 µM [14]: 78.5%
growth at 10 µM [15]: 19.1%
growth at 10 µM [16]: 93.5%
growth at 10 µM (A498): 52.5%
growth at 10 µM (ACHN): 77%
growth at 10 µM [17]: 71.3%
growth at 10 µM (SN12C): 77%
growth at 10 µM [18]: 88.5%
growth at 10 µM [19]: 60%
growth at 10 µM [20]: 51.2%
growth at 10 µM (MDA-MB-231): 63.1%
growth at 10 µM [21]: 18.4%
growth at 10 µM [22]: 74.8%
growth at 10 µM (MDA-MB-468): 20.4%
